Test results reported in US9952217B2, “Anti-HBc quantitative detection method and uses thereof in monitoring and controlling disease progression of chronic hepatitis B patient and in predicting therapeutic effect” (priority 2012, dated 2018).

Test system: hepatitis B virus
Assay: Adefovir dipivoxil therapy of HBeAg positive chronic hepatitis B patients (Cohort A)
Assay type: in vivo, human
Method: Patient cohort A: 49 HBeAg positive patients, all patients accepted therapy of adefovir dipivoxil (10 mg/day), for 96 weeks in total, and were follow-up visited for 12 weeks after stop of therapy.
The above patients before therapy all met the criteria of disease adaptable for therapy as recommended by the Guide of Clinical Management of Chronic Hepatitis B of APASL: HBsAg was positive for consecutive 1 year or more, HBeAg was positive and anti-HBe was negative, serum ALT level was higher than 2 times of ULN; the patients were chosen to exclude possibility of having accompanied infection of hepatitis C virus (HCV), human immunodeficiency virus (HIV), hepatitis D virus (HDV), hepatitis E virus (HEV), and have no clinical medicine evidence of having accompanied autoimmune or metabolic liver diseases.
It was performed according to the method described in section 4.2 of Example 4.
It was performed according to the method described in section 4.3 of Example 4.
Main therapeutic end was defined when HBeAg seroconversion occurred at follow-up visit end.
All statistic methods were performed according to those described in Example 4.

Structure (SMILES): CC(C)(C)C(=O)OCOP(=O)(COCCn1cnc2c(N)ncnc21)OCOC(=O)C(C)(C)C [adefovir dipivoxil]
- average increase (bounce) of serum anti-HBc level after therapy (108 weeks versus therapy end (96 weeks)): 0.29 log10 IU/ml
- decrease of average HBV DNA level at follow-up end versus before therapy (HBc-High group (baseline anti-HBc ≥29000 IU/ml, n=16)): 3.48±2.24 log10 copies/mL
- decrease of average HBV DNA level at follow-up end versus before therapy (HBc-Low group (baseline anti-HBc <29000 IU/ml, n=33)): 1.69±2.05 log10 copies/mL
- therapeutic effective rate (HBeAg seroconversion at follow-up visit end) (all 49 patients, 10 mg/day for 96 weeks, follow-up 12 weeks after stop): 18.4%
- response rate (HBeAg seroconversion after therapy) (baseline anti-HBc 9000-29000 IU/ml (n=19)): 10.5%
- patients with HBeAg seroconversion after therapy (baseline anti-HBc <9000 IU/ml (16 patients as printed)): none
- response rate (HBeAg seroconversion after therapy) (baseline anti-HBc ≥29000 IU/ml, three-group analysis): 43.8%
- decline of average serum anti-HBc level per 12 weeks (baseline to 60 weeks after beginning of therapy): 0.20±0.05 log10 IU/mL
- ratio of occurrence rates (Risk Ratio, RR) of HBeAg seroconversion between high and low anti-HBc groups (cutoff 29000 IU/ml baseline anti-HBc): 7.22
- effective rate (HBeAg seroconversion at follow-up visit end) (patients with baseline anti-HBc greater than 29000 IU/ml (n=16)): 43.8%
- effective rate (HBeAg seroconversion at follow-up visit end) (patients with baseline anti-HBc less than 29000 IU/ml (n=33)): 6.1%
